Data published in PubChem BioAssay AID248 (DTP/NCI, 2004).
Several values for one entry are separate records, joined by “and”; a condition that tells them apart may be missing. Equal entries are not always repeated. Toxic doses and inconclusive results are not listed.

Test system: L1210 leukemia ip in BDF1 mice, survival T/C
Assay: NCI In Vivo Anticancer Drug Screen. Data for tumor model L1210 Leukemia (intraperitoneal) in B6D2F1 (BDF1) mice
Conditions: higher = longer survival
Outline: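 Mice bearing the transplanted tumor received compound or vehicle. Survival of the treated group was divided by that of the vehicle-treated control group to give the ratio.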

[1] = endpoint: mean survival time, dose: 100.0 mg/kg/injection, schedule: Q01DX001 (ip), vehicle: Klucel (hydroxypropylcellulose) (HPC)
[2] = endpoint: mean survival time, dose: 100.0 mg/kg/injection, schedule: Q01DX009 (ip), vehicle: Klucel (hydroxypropylcellulose) (HPC)
[3] = endpoint: mean survival time, dose: 100.0 mg/kg/injection, schedule: Q04DX003 (ip), vehicle: Klucel (hydroxypropylcellulose) (HPC)
[4] = endpoint: mean survival time, dose: 200.0 mg/kg/injection, schedule: Q01DX001 (ip), vehicle: Klucel (hydroxypropylcellulose) (HPC)
[5] = endpoint: mean survival time, dose: 200.0 mg/kg/injection, schedule: Q01DX009 (ip), vehicle: Klucel (hydroxypropylcellulose) (HPC)
[6] = endpoint: mean survival time, dose: 200.0 mg/kg/injection, schedule: Q04DX003 (ip), vehicle: Klucel (hydroxypropylcellulose) (HPC)
[7] = endpoint: mean survival time, dose: 400.0 mg/kg/injection, schedule: Q01DX001 (ip), vehicle: Klucel (hydroxypropylcellulose) (HPC)
[8] = endpoint: mean survival time, dose: 400.0 mg/kg/injection, schedule: Q04DX003 (ip), vehicle: Klucel (hydroxypropylcellulose) (HPC)

Q: What does the source list for `C(/CCc1ccccc1)=N\Nc1nnc(N/N=C/CCc2ccccc2)c2ccccc12`?
A: T/C (endpoint: mean survival time, dose: 50.0 mg/kg/injection, schedule: Q01DX001 (ip), vehicle: carboxymethylcellulose (CMC)): 102 % of control; T/C (endpoint: mean survival time, dose: 100.0 mg/kg/injection, schedule: Q01DX001 (ip), vehicle: carboxymethylcellulose (CMC)): 105 % of control; T/C (endpoint: mean survival time, dose: 200.0 mg/kg/injection, schedule: Q01DX001 (ip), vehicle: carboxymethylcellulose (CMC)): 102 % of control

Q: Which results are given for `COC1C(O)C(C)OC(OC2C(Oc3cccc4c(O)c5c(=O)oc6ccc(C)c7c(=O)oc(c34)c5c67)OC(C)C(O)C2O)C1O` (stereo not drawn)?
A: T/C (endpoint: mean survival time, dose: 1.25 mg/kg/injection, schedule: Q01DX009 (ip), vehicle: saline with Tween-80): 97 % of control; T/C (endpoint: mean survival time, dose: 2.5 mg/kg/injection, schedule: Q01DX009 (ip), vehicle: saline with Tween-80): 123 % of control; T/C (endpoint: mean survival time, dose: 5.0 mg/kg/injection, schedule: Q01DX009 (ip), vehicle: saline with Tween-80): 115 % of control; T/C (endpoint: mean survival time, dose: 12.5 mg/kg/injection, schedule: Q01DX009 (ip), vehicle: carboxymethylcellulose (CMC)): 108 % of control; T/C (endpoint: mean survival time, dose: 20.0 mg/kg/injection, schedule: Q01DX009 (ip), vehicle: saline with Tween-80): 166 % of control; T/C (endpoint: mean survival time, dose: 25.0 mg/kg/injection, schedule: Q01DX009 (ip), vehicle: carboxymethylcellulose (CMC)): 108 % of control; T/C (endpoint: mean survival time, dose: 50.0 mg/kg/injection, schedule: Q01DX009 (ip), vehicle: carboxymethylcellulose (CMC)): 117 % of control; T/C (endpoint: mean survival time, dose: 100.0 mg/kg/injection, schedule: Q01DX009 (ip), vehicle: saline with Tween-80): 121 % of control; T/C (endpoint: median survival time, dose: 8.0 mg/kg/injection, schedule: Q04DX003 (ip), vehicle: saline with Tween-80): 106 % of control; T/C (endpoint: median survival time, dose: 16.0 mg/kg/injection, schedule: Q04DX003 (ip), vehicle: saline with Tween-80): 110 % of control; T/C (endpoint: median survival time, dose: 32.0 mg/kg/injection, schedule: Q04DX003 (ip), vehicle: saline with Tween-80): 114 % of control; T/C (endpoint: median survival time, dose: 64.0 mg/kg/injection, schedule: Q04DX003 (ip), vehicle: saline with Tween-80): 114 % of control; T/C (endpoint: median survival time, dose: 128.0 mg/kg/injection, schedule: Q04DX003 (ip), vehicle: saline with Tween-80): 110 % of control

Q: How did the T/C (endpoint: mean survival time, dose: 100.0 mg/kg/injection, schedule: Q04DX003 (ip), vehicle: saline with Tween-80) turn out when `COc1ccc(NC(=O)N2CCOCC2)cc1OC` was run?
A: 102 % of control

Q: And the T/C (endpoint: mean survival time, dose: 200.0 mg/kg/injection, schedule: Q04DX003 (ip), vehicle: saline with Tween-80)?
A: 96 % of control

Q: What about the T/C (endpoint: mean survival time, dose: 400.0 mg/kg/injection, schedule: Q04DX003 (ip), vehicle: saline with Tween-80) of the same molecule?
A: 89 % of control

Q: How did the T/C [1] turn out when `Cc1cccc(NC(=O)Oc2ccccc2C(N)=O)c1` was run?
A: 94 % of control

Q: And the T/C [2]?
A: 94 % of control

Q: And the T/C (endpoint: mean survival time, dose: 100.0 mg/kg/injection, schedule: Q04DX002 (ip), vehicle: Klucel (hydroxypropylcellulose) (HPC))?
A: 94 % of control and 100 % of control

Q: And the T/C [3]?
A: 95 % of control

Q: And the T/C [4]?
A: 95 % of control

Q: And the T/C [5]?
A: 96 % of control

Q: What about the T/C (endpoint: mean survival time, dose: 200.0 mg/kg/injection, schedule: Q04DX002 (ip), vehicle: Klucel (hydroxypropylcellulose) (HPC)) of the same molecule?
A: 98 % of control

Q: And the T/C [6]?
A: 95 % of control

Q: And the T/C [7]?
A: 106 % of control

Q: And the T/C (endpoint: mean survival time, dose: 400.0 mg/kg/injection, schedule: Q01DX009 (ip), vehicle: Klucel (hydroxypropylcellulose) (HPC))?
A: 91 % of control and 92 % of control

Q: And the T/C (endpoint: mean survival time, dose: 400.0 mg/kg/injection, schedule: Q04DX002 (ip), vehicle: Klucel (hydroxypropylcellulose) (HPC))?
A: 94 % of control and 96 % of control

Q: And the T/C [8]?
A: 93 % of control

Q: What does the source list for `O=C(Nc1ccc(Cl)c([N+](=O)[O-])c1)Oc1ccccc1F`?
A: T/C [2]: 92 % of control; T/C [3]: 97 % of control; T/C [5]: 101 % of control; T/C [6]: 97 % of control; T/C [8]: 96 % of control

Q: `C#CC(=O)OCC` was tested. Which T/C (endpoint: mean survival time, dose: 12.5 mg/kg/injection, schedule: Q04DX003 (ip), vehicle: saline with Tween-80) did it give?
A: 103 % of control

Q: And the T/C (endpoint: mean survival time, dose: 25.0 mg/kg/injection, schedule: Q01DX001 (ip), vehicle: saline with Tween-80)?
A: 105 % of control

Q: And the T/C (endpoint: mean survival time, dose: 25.0 mg/kg/injection, schedule: Q04DX003 (ip), vehicle: saline with Tween-80)?
A: 106 % of control

Q: And the T/C (endpoint: mean survival time, dose: 50.0 mg/kg/injection, schedule: Q01DX001 (ip), vehicle: saline with Tween-80)?
A: 108 % of control

Q: And the T/C (endpoint: mean survival time, dose: 50.0 mg/kg/injection, schedule: Q04DX003 (ip), vehicle: saline with Tween-80)?
A: 119 % of control

Q: Which T/C [1] does the source give for `O=C(COc1ccc(Cl)c(Cl)c1)Nc1ccc[n+](Cc2cccc([N+](=O)[O-])c2)c1` here?
A: 95 % of control

Q: And the T/C [4]?
A: 94 % of control

Q: And the T/C [7]?
A: 94 % of control

Q: `CN1C(=O)OC2(CCN(Cc3ccccc3)CC2)C1=O` was tested. Which T/C [3] did it give?
A: 102 % of control

Q: And the T/C [6]?
A: 90 % of control

Q: And the T/C [8]?
A: 98 % of control

Q: Which results are given for `O=C1c2cscc2Cc2sccc21`?
A: T/C (endpoint: mean survival time, dose: 100.0 mg/kg/injection, schedule: Q01DX001 (ip), vehicle: saline with Tween-80): 95 % of control; T/C (endpoint: mean survival time, dose: 200.0 mg/kg/injection, schedule: Q01DX001 (ip), vehicle: saline with Tween-80): 92 % of control; T/C (endpoint: mean survival time, dose: 400.0 mg/kg/injection, schedule: Q01DX001 (ip), vehicle: saline with Tween-80): 88 % of control

Q: Which results are given for `O=[N+]([O-])c1ccc2c3c(cccc13)CC2`?
A: T/C (endpoint: mean survival time, dose: 100.0 mg/kg/injection, schedule: Q01DX001 (ip), vehicle: saline): 102 % of control; T/C (endpoint: mean survival time, dose: 200.0 mg/kg/injection, schedule: Q01DX001 (ip), vehicle: saline): 96 % of control; T/C (endpoint: mean survival time, dose: 400.0 mg/kg/injection, schedule: Q01DX001 (ip), vehicle: saline): 90 % of control
